Values quoted from earlier work, collected in patent US20230096856A1, “COMBINED TREATMENT REGIMEN OF […]/SEDATION WITH ADMINISTRATION OF P[…] ASSOCIATED WITH REDUCTION IN NEUROP[…]” (priority 2021, published 2023).

Legend:
[1] = system: N-methyl-D-aspartate (NMDA) receptors
AMPA receptor = details: sub-anesthetic dose, animal studies
[2] = system: gamma-aminobutyric acid type A receptors; details: acutely
5-HT2A receptors = 5-HT2A receptors (Homo sapiens, UniProt P28223)
[3] = system: extracellular glutamate levels; details: rat models
[4] = system: ventral dentate gyrus of the hippocampus; details: single dose
[5] = system: hallucinogenic experience; details: in vivo
Sigma-1 receptors [6] = molecular target: Sigma-1 receptors (Homo sapiens, UniProt Q99720); details: receptors that modulate immune responses in human monocyte-derived dendritic cells
sigma-1 receptors [7] = system: sigma-1 receptors
tinnitus = details: single dose, mice
BDNF = details: rats exposed to psychological stress

Sequence of 5-HT2A receptors (P28223 whole entry): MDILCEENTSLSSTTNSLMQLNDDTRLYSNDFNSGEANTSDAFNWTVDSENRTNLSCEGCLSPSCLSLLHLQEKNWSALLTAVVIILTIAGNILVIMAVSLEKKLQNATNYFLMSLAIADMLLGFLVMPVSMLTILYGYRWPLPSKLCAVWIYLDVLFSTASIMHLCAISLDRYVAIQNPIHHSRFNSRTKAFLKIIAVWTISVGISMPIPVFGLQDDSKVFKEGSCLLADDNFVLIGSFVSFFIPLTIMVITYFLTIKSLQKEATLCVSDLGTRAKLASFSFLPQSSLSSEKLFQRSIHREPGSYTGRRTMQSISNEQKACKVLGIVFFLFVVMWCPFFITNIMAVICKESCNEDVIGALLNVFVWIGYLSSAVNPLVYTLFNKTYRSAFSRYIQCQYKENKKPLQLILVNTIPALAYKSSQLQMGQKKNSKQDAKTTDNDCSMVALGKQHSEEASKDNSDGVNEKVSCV
Sequence of Sigma-1 receptors (Q99720 whole entry): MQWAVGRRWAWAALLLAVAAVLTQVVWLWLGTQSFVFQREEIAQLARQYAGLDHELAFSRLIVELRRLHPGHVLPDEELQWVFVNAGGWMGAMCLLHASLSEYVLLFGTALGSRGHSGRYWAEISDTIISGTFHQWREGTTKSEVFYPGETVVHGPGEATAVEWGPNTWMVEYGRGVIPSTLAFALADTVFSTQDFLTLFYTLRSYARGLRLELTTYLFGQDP

## CC(C)c1cccc(C(C)C)c1O [propofol]
depression; EEG suppression ratio
  time after induction until desired SR>80% was reached: About five
depression; after approximately four sessions (1 week), asymptote at approximately 7 sessions (two weeks)
  QIDS-SR scale scores: significant reduction
depression; after eye opening
  average recovery time until oriented to time and place: 5 to 10 min
depression; in vivo
  cognitive side effects common for ECT (short term memory loss): do not occur
  effect on efficacy of ECT in treating depression: does not diminish the efficacy
  period within which severity of self-report symptoms of moderate to severe depression is reduced: 1-2 weeks
  time to state of unconsciousness upon induction: one
[1]
  inhibition of NMDA receptors: does not induce inhibition
AMPA receptor
  expression of AMPA pGluR1: increase the expression of AMPA pGluR1 in dose-dependent manner
  speed and degree of glutamate-induced desensitization of the AMPA receptor in neurons: can decrease
[2]
  LTP induction: inhibits long term potentiation (LTP) induction

## ibogaine
5-HT2A receptors
  interaction with 5-HT2A receptors: interact minimally, indirectly, or not at all

## CNC1(c2ccccc2Cl)CCCCC1=O (stereo not drawn) [ketamine]
[3]
  extracellular glutamate levels in prefrontal-limbic circuitry: increases extracellular glutamate levels

## COc1ccc2[nH]cc(CCN(C)C)c2c1 [5-MeO-DMT, 5-5-Methoxy-N,N-dimethyltryptamine]
Human cerebral organoids
  mGluR5 regulation: downregulation of mGluR5
  neural plasticity and anti-inflammatory activity: potentiation of neural plasticity and elevated anti-inflammatory activity
[4]
  cell proliferation and neuronal survivability in the ventral dentate gyrus of the hippocampus: stimulates cell proliferation and neuronal survivability
[4]; adult mice
  neurogenesis in the ventral dentate gyrus: enhances neurogenesis
Phospholipase A2 (PLA2)
  PLA2 activation: differentially strong phospholipase A2 (PLA2) activation
[5]
  duration of acute hallucinogenic state: 5 to 20 min
  duration of hallucinogenic experience: 10 to 20 min
Sigma-1 receptors [6]
  affinity for Sigma-1 receptors: functionally significant affinity
sigma-1 receptors [7]
  IFNc and GM-CSF expression: suppressing
  secretion level of anti-inflammatory interleukin 10 cytokine: increase the secretion level
tinnitus
  tinnitus: can be reduced

## O=C(c1ccc(F)cc1)C1CCN(CCn2c(=O)[nH]c3ccccc3c2=O)CC1 [ketanserin]
BDNF
  BDNF mRNA: reducing the presence BDNF mRNA
  immunoreactivity indicative of BDNF presence in brain areas: inhibits BDNF immunoreactivity

## COC(=O)[C@@H]1C[C@H](OC(C)=O)C(=O)[C@H]2[C@@]1(C)CC[C@H]1C(=O)O[C@H](c3ccoc3)C[C@]21C [salvinorin A]
5-HT2A receptors
  interaction with 5-HT2A receptors: interact minimally, indirectly, or not at all
